Laboratory results as given in US20130123367A1, “VINYLOGOUS CHALCONE DERIVATIVES AND THEIR MEDICAL USE” (MEDIZINISCHE UNIVERSITAT WIEN, priority 2010, published 2013).

Assays:
Assay type in all cases: cell-based
SW480 cells = assay: Cell cycle analysis by flow cytometry; settings: 0.03, 0.1 or 0.3 μM compared to DMSO control; FIG. 5
Description: FIG. 5: Cell cycle analysis using SW480 cells treated with 0 μM (control using DMSO), 0.03 μM, 0.1 μM or 0.3 μM of compound 22.
To quantify the cellular DNA content, DNA is visualized by staining with propidium iodide (PI), a fluorescent dye which binds to double stranded DNA. To allow PI to enter cells they are permeabilized with Triton-X. The fluorescence intensity per cell, which correlates with its DNA content, is measured by flow cytometry. The G0/G1 peak represents cells in the usual diploid state. Apoptotic cells are characterized through a peak in the FACS histogram below the G0/G1 peak (sub G1) (Nicoletti I et al. J. Immunol. Methods 1991, 139 (2), 271-279):
Since cells in different phases of the cell cycle have a different DNA content this method can also be used for measuring the amount of cells in different stages of the cell cycle. Cells were seeded in 12-well plates at a density 10 fold more than used in 96-well plates in 2 ml growth media. Cells were incubated for one day, until they reached 50-70% confluence. Then they were stimulated with different concentrations of the test compounds, according to the data available from proliferation assays. […]
Cells were measured by flow cytometry 50-150 events/second with a total of 10 000 events using channel FL2-A. Data were analyzed with CellQuest Pro™. Mean values from different repeats were analyzed using GraphPad Prism® 4.03.

[1] = system: breast cancer cell line MDA MB231; assay: Crystal violet assay, MDA MB231; settings: Homo sapiens, MDA-MB-231, n = 3
Description: (§1) For quantification, cells are treated with crystal violet, a dye that stains proteins. After washing away of excess dye, the remaining crystal violet is dissolved in a sodium citrate solution. The solution is analyzed photometrically at 590 nm. The optical density of this solution depends on the concentration of crystal violet and therefore on the amount of cells. […] To reduce effects of evaporation, only the inner 60 wells of 96-well plates (coated with 0.1% gelatine solution for studies with HUVEC) were used for experiments.
(§2) Cells were treated with 2 μl of the working solution 24 h after seeding. Final compound concentrations in the well were 10 μM for the first round of screening. The final DMSO concentration was 0.5%. […] After finishing the addition of compounds, the T0-plate was stained with crystal violet for giving the cell density at time point zero. […] After air drying of the plates the crystal violet on the cells was dissolved in 100 μl of sodium citrate solution, and the absorption was measured with a plate reader at 590 nm.
(§3) Mean values were corrected with the absorption of stained medium and the corrected absorption of T0 cells. Cell growth was calculated relative to DMSO control for data comparison. IC50 values (50% inhibition of cell growth) were determined with GraphPad Prism® (Version 4.03) using nonlinear regression (sigmoidal dose-response with variable slope). […]

HCT116 cell line = assay: Cell proliferation assay using crystal violet, HCT116; settings: Homo sapiens, HCT-116, n = 3, 24 h incubation
Description: as §1
(§4) Cells were seeded at a density of 5 000 cells per well in 100 μl growth medium (HUVEC) or 20 000 (HCT116), 15 000 (SW480 and 518A2) or 10 000 (HT29) cells per well in 200 μl growth medium in 55 wells per plate. 5 wells were filled with medium only. Additionally, a 96-well plate with cells in 12 wells and medium in 6 wells was prepared as T0-plate. The next day, additional 98 μl of growth medium were added in every well (only HUVEC).
(§5) Cells were treated with 2 μl of the working solution 24 h after seeding. Final compound concentrations in the well were 10 μM for the first round of screening. The final DMSO concentration was 0.5%. […] After finishing the addition of compounds, the T0-plate was stained with crystal violet for giving the cell density at time point zero. Before staining, the growth medium was poured away. Wells were filled with 50 μl crystal violet solution for 10 min. Then the staining solution was washed away with water. Since crystal violet is environmentally hazardous the waste was collected and disposed in an appropriate manner. After air drying of the plates the crystal violet on the cells was dissolved in 100 μl of sodium citrate solution, and the absorption was measured with a plate reader at 590 nm.
Mean values were corrected with the absorption of stained medium and the corrected absorption of T0 cells. Cell growth was calculated relative to DMSO control for data comparison.

[2] = system: melanoma cell line SK-MEL 5; assay: Crystal violet assay, SK-MEL 5; settings: Homo sapiens, n = 3
Description: as §1, §2, §3

[3] = system: colon cancer cell line HT29; assay: Cell proliferation assay using crystal violet, HT29; settings: Homo sapiens, HT-29, n = 3, 24 h incubation
Description: as §1, §4, §5, §3

SMILES	“DNA>4N” portion (inhibition of cell division) (SW480 cells)	“Sub G1” portion (induction of apoptosis) (SW480 cells)	IC50 [1] [nM]	IC50 (HCT116 cell line) [nM]	IC50 [2] [nM]	IC50 [3] [nM]
CCOc1ccccc1C(=O)/C=C/c1ccc2ccccc2c1 [Compound 22, 3-(2-Naphthyl)-1-(2′-ethoxyphenyl)-2-propene-1-one]	increase	increase				
COc1ccccc1/C=C/C=C/C(=O)c1cc(OC)c(OC)c(OC)c1 [Compound 1, 5-(2-Methoxyphenyl)-1-(3′,4′,5′-trimethoxyphenyl)-2,4-pentadiene-1-one]			630	230	150	540
